Laboratory results published in patent US20230183643A1, “COMPOSITIONS AND METHODS FOR PRODUCING PLACENTAL CELLS” (Regents of the University of Minnesota, priority 2021, published 2023).
“Also recorded” adds a separate entry of the source.

Key:
Format in all cases: cell-based, human
[1] = test system: IMR-90-4 hiPSCs; test: PCR and qRT-PCR of trophoblast cell marker transcripts and C19 miRNAs; details: for CDX2 mRNA transcript level (PCR / RT-PCR): after 5 days in UM with 1 μM RA, 8 μM CHIR, RA+CHIR or 1 μM SU6656; for CDX2 transcript level (qRT-PCR) / GATA3 transcript level (qRT-PCR) / KLF4 transcript level (qRT-PCR) / KRT7 transcript level (qRT-PCR): 5 days of incubation, compared to UM alone (FIG. 10)
Method: For differentiation, 70% confluent stem cells were rinsed with DPBS (Gibco) and pre-warmed Accutase was added to the wells. Cells were then placed at 37° C. for 5-7 minutes. Following incubation, cells were removed from the well with a p1000 pipette. The cells in Accutase solution were then added to a conical tube containing an equal volume of fresh media and spun down at 200×g for 5 minutes. The cells were then resuspended and seeded on Matrigel-coated plates at 6,000 cells/cm^2 in TeSR-E8 or mTeSR Plus with 5 μM ROCK inhibitor (Y-27632, Stem Cell Tech). Cells were maintained in E8 or mTeSR Plus for two more days, and then the medium was changed to unconditioned medium (UM): […] RA and/or CHIR were excluded in control experiments (FIG. 1), as described. Cell culture media was changed daily for five days. The induced multipotent placental cells produced by this method are termed iMPC1 cells (also referred herein, as iMPC1-D5 cells). As described herein, the cells may alternatively be exposed to RA+CHIR for 3 or 4 days. For example, iMPC1-D3 and iMPC1-D4, may also be produced wherein the cells are exposed to RA+CHIR for 3 and 4 days, respectively. Cell pellets were collected and lysed using QiaShredder columns (Qiagen). RNA was isolated using the RNeasy Mini Kit (Qiagen) as the manufacturer recommends, including incubation with DNase I (RNAse-free DNase Set, Qiagen). Collected RNA was quantified using a NanoDrop. Reverse transcription was performed on 1000 ng RNA using the Omni script RT Kit (Qiagen). RNA with Oligo-dT primer (Life Tech) was denatured for 5 minutes at 65° C. before the remaining elements were added and incubated at 37° C. for 1 hour. Quantitative real time PCR (qRT-PCR) was performed using iTaq Universal SYBR Green Supermix (Bio Rad) as the manufacturer recommends. Primers (Table 2) were added at 250 nM each (forward and reverse). Analysis was performed on a Bio Rad CFX Connect Real-Time PCR system. GAPDH was used as a reference gene, and error was propagated using the […] method. PCR was performed identically as above through the reverse transcription step to generate cDNA. GoTaq Master Mix (Promega) was used for PCR per the manufacturer's instructions. Primers (Table 2) were added at […] each. PCR products were visualized on a 2% agarose gel containing SYBR Safe (Thermo Fisher) after electrophoresis at […] for 100 minutes. Gels were imaged using a ChemiDoc Touch Gel/Blot Reader (Bio Rad).

[2] = test system: IMR-90-4 hiPSCs; test: Immunostaining for pluripotency and lineage-specific markers after treatment; details: for Keratin 8 expression (immunostaining): UM+1 μM RA or UM+1 μM SU6656; for CDX2 protein expression (immunostaining): after 5 days incubation, 1 μM RA, 8 μM CHIR-99021, 1 μM SU6656 or RA+CHIR in UM or E6
Method: For differentiation, 70% confluent stem cells were rinsed with DPBS (Gibco) and pre-warmed Accutase was added to the wells. Cells were then placed at 37° C. for 5-7 minutes. Following incubation, cells were removed from the well with a p1000 pipette. The cells in Accutase solution were then added to a conical tube containing an equal volume of fresh media and spun down at 200×g for 5 minutes. The cells were then resuspended and seeded on Matrigel-coated plates at 6,000 cells/cm^2 in TeSR-E8 or mTeSR Plus with 5 μM ROCK inhibitor (Y-27632, Stem Cell Tech). Cells were maintained in E8 or mTeSR Plus for two more days, and then the medium was changed to unconditioned medium (UM): […] RA and/or CHIR were excluded in control experiments (FIG. 1), as described. Cell culture media was changed daily for five days. The induced multipotent placental cells produced by this method are termed iMPC1 cells (also referred herein, as iMPC1-D5 cells). As described herein, the cells may alternatively be exposed to RA+CHIR for 3 or 4 days. For example, iMPC1-D3 and iMPC1-D4, may also be produced wherein the cells are exposed to RA+CHIR for 3 and 4 days, respectively. For immunocytochemistry analysis, cells were rinsed 2× with PBS and then fixed for 10 minutes with 4% paraformaldehyde (PFA) at room temperature. […] Primary antibodies (Table 1A) were diluted into PBSGT and incubated on cells overnight at 4° C. Cells were washed 3× in PBST for 15 minutes, and then secondary antibodies (Table 1B) were diluted 1:500 in PBSGT and incubated on the cells for 1 hour at room temperature. Following a 10-minute PBS wash, cells were incubated with a DAPI solution for 10 minutes. Another 10-minute PBS wash was performed before the cells were imaged on an EVOS microscope.

[3] = test system: IMR-90-4 hiPSCs; test: Flow cytometry of CDX2, Oct-4, GATA3 and Keratin 7 in hiPSCs differentiated with RA and/or CHIR; details: 5 days in UM, 1 μM RA with or without 8 μM CHIR
Method: For differentiation, 70% confluent stem cells were rinsed with DPBS (Gibco) and pre-warmed Accutase was added to the wells. Cells were then placed at 37° C. for 5-7 minutes. Following incubation, cells were removed from the well with a p1000 pipette. The cells in Accutase solution were then added to a conical tube containing an equal volume of fresh media and spun down at 200×g for 5 minutes. The cells were then resuspended and seeded on Matrigel-coated plates at 6,000 cells/cm^2 in TeSR-E8 or mTeSR Plus with 5 μM ROCK inhibitor (Y-27632, Stem Cell Tech). Cells were maintained in E8 or mTeSR Plus for two more days, and then the medium was changed to unconditioned medium (UM): DMEM/F12 with 20% Knockout serum replacement, MEM non-essential amino acids (1×), GlutaMAX (lx, Life Tech), and 0.1 mM β-mercaptoethanol (Sigma), containing 1 μM retinoic acid (RA, Sigma) and […] (Tocris). RA and/or CHIR were excluded in control experiments (FIG. 1), as described. Cell culture media was changed daily for five days. The induced multipotent placental cells produced by this method are termed iMPC1 cells (also referred herein, as iMPC1-D5 cells). […]
Cells were rinsed 2× with PBS and then pre-warmed Accutase was added to the wells. […] Plots shown are representative of a single independent replicate, but medians and standard deviations were calculated from three independent replicates.

CN(C)S(=O)(=O)c1ccc2c(c1)/C(=C/c1cc3c([nH]1)CCCC3)C(=O)N2 [SU6656]
CDX2 mRNA transcript level (PCR / RT-PCR) [1]: restricted to the RA condition
Keratin 8 expression (immunostaining) ([2]; 5 days): expressed in all conditions
CDX2 protein expression (immunostaining) [2]: restricted to the RA condition

CC1=C(/C=C/C(C)=C/C=C/C(C)=C/C(=O)O)C(C)(C)CCC1 [RA, retinoic acid]
CDX2 transcript level (qRT-PCR) [1]: upregulation
GATA3 transcript level (qRT-PCR) [1]: upregulation
KLF4 transcript level (qRT-PCR) [1]: upregulation
KRT7 transcript level (qRT-PCR) [1]: upregulation
CDX2 mRNA transcript level (PCR / RT-PCR) [1]: heightened expression; also recorded: restricted to the RA condition
interquartile range (IQR) of CDX2 expression (flow cytometry) [3]: 119
CDX2 median expression intensity (flow cytometry) ([3]; p<0.001): 1348±42
Keratin 18 (KRT18) expression (immunostaining) ([2]; 1 μM RA in UM, 5 days): gained expression
Oct-4 expression (immunostaining) ([2]; 1 μM RA in UM, 5 days): lost expression
lowest concentration tested which resulted in CDX2 expression ([2]; 5 days in UM, 0.1, 1 and 10 μM RA tested): 1 µM
Keratin 8 expression (immunostaining) ([2]; 5 days): expressed in all conditions
CDX2 protein expression (immunostaining) [2]: gained expression; also recorded: restricted to the RA condition

Cc1cnc(-c2cnc(NCCNc3ccc(C#N)cn3)nc2-c2ccc(Cl)cc2Cl)[nH]1 [CHIR-99021, 6-[[2-[[4-(2,4-Dichlorophenyl)-5-(5-methyl-1H-imidazol-2-yl)-2-pyrimidinyl]amino]ethyl]amino]-3-pyridinecarbonitrile]
CDX2 transcript level (qRT-PCR) [1]: upregulating
GATA3 transcript level (qRT-PCR) [1]: compromised the expression
KLF4 transcript level (qRT-PCR) [1]: compromised the expression
KRT7 transcript level (qRT-PCR) [1]: compromised the expression
CDX2 mRNA transcript level (PCR / RT-PCR) [1]: low levels of CDX2 expression
CDX2 protein expression (immunostaining) [2]: unable to induce CDX2 protein expression
